# In PMC11850817 (Scientific Reports, 2025):
# Assays:
# ABL1 = ABL1 (Homo sapiens, UniProt P00519); assay: Radiometric kinase assay; type: biochemical; settings: read-out: Kinase inhibition (%) ABL1
# IGF1R = IGF1R (Homo sapiens, UniProt P08069); assay: Radiometric kinase assay; type: biochemical; settings: read-out: Kinase inhibition (%) IGF1R
# CDK2/cyclin A = CDK2/cyclin A (Homo sapiens, UniProt P24941); assay: Radiometric kinase assay; type: biochemical; settings: read-out: Kinase inhibition (%) CDK2/cyclin A
# KDR (VEGFR2) = KDR (VEGFR2) (Homo sapiens, UniProt P35968); assay: Radiometric kinase assay; type: biochemical; settings: read-out: Kinase inhibition (%) KDR (VEGFR2)
# FGFR1 = FGFR1 (Homo sapiens, UniProt P11362); assay: Radiometric kinase assay; type: biochemical; settings: read-out: Kinase inhibition (%) FGFR1
# Mia-Paca-2 = assay: MTT antiproliferative assay, Mia-Paca-2; type: cell-based, human; settings: Homo sapiens, MIA PaCa-2, 72 h, read-out: IC50 Mia-Paca-2
# EBC-1 = assay: MTT antiproliferative assay, EBC-1; type: cell-based, human; settings: Homo sapiens, EBC-1, 72 h, read-out: IC50 EBC-1
# KIT (c-Kit) = KIT (c-Kit) (Homo sapiens, UniProt P10721); assay: Radiometric kinase assay; type: biochemical; settings: read-out: Kinase inhibition (%) KIT (c-Kit)
# NIH3T3 = assay: MTT assay, NIH3T3 non-cancer cell line; type: cell-based; settings: Mus musculus, NIH3T3, 72 h, read-out: IC50 NIH3T3
# AsPC-1 cells [1] = assay: Cell cycle test, RNase/PI flow cytometry; type: cell-based, human; settings: AsPC-1, 3, 10, 30, 50 µM, 48 h
# AsPC-1 cells [2] = assay: Apoptosis by Hoechst 33,258 staining; type: cell-based, human; settings: AsPC-1, 10 and 30 µM, 48 h
# MCF-7 = assay: MTT antiproliferative assay, MCF-7; type: cell-based, human; settings: Homo sapiens, MCF7, 72 h, read-out: IC50 MCF-7
# Chain of FGFR1 (P11362 22-822): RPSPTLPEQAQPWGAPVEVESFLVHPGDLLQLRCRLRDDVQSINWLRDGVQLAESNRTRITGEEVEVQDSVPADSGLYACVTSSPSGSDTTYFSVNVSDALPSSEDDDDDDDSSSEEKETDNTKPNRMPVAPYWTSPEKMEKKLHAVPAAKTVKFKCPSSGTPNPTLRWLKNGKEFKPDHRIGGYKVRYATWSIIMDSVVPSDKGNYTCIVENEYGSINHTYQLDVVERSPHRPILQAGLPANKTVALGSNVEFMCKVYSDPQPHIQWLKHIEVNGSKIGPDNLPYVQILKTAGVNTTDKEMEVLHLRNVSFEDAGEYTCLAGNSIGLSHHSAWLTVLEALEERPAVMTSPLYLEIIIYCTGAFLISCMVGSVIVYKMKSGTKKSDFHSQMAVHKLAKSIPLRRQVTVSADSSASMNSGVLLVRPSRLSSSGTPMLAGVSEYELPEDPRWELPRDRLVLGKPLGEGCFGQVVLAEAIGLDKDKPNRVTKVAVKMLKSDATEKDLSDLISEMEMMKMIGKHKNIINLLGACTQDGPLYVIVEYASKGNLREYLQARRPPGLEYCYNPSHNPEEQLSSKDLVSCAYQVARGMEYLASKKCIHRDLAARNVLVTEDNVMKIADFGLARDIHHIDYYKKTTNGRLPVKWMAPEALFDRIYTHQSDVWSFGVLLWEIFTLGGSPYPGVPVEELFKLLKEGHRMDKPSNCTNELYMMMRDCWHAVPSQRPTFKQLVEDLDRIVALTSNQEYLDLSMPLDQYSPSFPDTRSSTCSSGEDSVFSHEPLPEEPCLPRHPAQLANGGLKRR
# Chain of ABL1 (P00519 whole entry): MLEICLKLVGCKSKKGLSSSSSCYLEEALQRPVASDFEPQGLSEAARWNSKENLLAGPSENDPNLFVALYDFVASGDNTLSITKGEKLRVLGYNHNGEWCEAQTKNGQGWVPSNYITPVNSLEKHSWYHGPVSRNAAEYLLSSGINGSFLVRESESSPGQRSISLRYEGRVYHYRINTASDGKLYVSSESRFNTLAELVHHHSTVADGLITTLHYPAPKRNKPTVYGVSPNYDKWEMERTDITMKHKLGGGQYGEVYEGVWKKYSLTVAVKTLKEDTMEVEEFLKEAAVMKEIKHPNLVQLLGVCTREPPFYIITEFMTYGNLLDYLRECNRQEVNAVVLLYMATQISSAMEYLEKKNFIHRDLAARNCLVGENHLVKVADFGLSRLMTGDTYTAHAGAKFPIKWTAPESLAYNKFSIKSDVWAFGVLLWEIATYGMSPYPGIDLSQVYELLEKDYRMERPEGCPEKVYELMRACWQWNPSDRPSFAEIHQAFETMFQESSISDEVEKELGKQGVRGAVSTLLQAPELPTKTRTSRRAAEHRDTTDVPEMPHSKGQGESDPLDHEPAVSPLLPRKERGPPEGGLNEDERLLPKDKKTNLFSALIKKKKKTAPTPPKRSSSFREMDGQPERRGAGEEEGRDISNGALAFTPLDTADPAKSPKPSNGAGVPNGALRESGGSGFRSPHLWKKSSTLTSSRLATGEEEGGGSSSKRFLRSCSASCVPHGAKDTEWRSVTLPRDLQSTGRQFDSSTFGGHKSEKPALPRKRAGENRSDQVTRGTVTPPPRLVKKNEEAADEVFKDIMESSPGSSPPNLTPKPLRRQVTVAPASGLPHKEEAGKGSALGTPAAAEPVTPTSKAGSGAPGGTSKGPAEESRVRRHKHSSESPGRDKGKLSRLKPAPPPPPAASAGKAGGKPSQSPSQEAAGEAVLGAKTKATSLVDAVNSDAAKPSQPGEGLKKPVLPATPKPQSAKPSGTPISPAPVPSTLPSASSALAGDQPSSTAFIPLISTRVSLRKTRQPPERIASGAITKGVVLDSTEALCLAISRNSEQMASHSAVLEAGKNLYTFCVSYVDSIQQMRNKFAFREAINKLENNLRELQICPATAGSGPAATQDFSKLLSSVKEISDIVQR
# Chain of KDR (VEGFR2) (P35968 20-1356): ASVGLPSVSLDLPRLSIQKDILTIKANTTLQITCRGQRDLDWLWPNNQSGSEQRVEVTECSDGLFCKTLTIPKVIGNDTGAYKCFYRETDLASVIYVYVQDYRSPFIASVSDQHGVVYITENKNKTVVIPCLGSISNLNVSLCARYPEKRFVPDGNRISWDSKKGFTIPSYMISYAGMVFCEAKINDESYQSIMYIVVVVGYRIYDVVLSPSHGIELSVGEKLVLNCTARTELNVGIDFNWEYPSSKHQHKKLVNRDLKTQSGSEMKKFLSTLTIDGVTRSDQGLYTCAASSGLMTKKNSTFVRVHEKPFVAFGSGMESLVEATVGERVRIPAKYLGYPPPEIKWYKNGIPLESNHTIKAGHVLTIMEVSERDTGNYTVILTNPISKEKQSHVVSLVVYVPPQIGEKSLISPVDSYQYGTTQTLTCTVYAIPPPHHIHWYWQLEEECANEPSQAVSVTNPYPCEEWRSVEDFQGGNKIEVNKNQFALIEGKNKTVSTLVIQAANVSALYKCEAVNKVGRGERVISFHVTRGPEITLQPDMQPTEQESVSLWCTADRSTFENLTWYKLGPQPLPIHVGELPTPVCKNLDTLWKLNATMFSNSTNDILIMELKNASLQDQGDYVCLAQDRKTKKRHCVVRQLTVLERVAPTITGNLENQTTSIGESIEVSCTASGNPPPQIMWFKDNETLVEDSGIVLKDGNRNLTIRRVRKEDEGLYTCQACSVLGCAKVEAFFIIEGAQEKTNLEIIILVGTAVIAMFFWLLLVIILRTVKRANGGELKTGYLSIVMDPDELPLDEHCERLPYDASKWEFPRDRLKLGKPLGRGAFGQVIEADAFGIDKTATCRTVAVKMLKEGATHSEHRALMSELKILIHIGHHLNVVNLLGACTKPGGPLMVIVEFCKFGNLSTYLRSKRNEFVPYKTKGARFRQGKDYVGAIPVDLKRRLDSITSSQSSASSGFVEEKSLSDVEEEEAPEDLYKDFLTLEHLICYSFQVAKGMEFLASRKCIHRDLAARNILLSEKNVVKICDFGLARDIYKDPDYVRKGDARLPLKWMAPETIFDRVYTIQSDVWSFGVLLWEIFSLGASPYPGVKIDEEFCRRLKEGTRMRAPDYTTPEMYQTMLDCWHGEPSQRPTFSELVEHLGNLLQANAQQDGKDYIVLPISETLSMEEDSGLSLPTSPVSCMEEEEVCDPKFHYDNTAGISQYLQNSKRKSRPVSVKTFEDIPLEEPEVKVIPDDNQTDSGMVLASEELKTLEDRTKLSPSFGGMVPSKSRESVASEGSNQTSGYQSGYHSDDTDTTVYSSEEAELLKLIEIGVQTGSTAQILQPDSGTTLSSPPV
# Chain of IGF1R (P08069 31-1367): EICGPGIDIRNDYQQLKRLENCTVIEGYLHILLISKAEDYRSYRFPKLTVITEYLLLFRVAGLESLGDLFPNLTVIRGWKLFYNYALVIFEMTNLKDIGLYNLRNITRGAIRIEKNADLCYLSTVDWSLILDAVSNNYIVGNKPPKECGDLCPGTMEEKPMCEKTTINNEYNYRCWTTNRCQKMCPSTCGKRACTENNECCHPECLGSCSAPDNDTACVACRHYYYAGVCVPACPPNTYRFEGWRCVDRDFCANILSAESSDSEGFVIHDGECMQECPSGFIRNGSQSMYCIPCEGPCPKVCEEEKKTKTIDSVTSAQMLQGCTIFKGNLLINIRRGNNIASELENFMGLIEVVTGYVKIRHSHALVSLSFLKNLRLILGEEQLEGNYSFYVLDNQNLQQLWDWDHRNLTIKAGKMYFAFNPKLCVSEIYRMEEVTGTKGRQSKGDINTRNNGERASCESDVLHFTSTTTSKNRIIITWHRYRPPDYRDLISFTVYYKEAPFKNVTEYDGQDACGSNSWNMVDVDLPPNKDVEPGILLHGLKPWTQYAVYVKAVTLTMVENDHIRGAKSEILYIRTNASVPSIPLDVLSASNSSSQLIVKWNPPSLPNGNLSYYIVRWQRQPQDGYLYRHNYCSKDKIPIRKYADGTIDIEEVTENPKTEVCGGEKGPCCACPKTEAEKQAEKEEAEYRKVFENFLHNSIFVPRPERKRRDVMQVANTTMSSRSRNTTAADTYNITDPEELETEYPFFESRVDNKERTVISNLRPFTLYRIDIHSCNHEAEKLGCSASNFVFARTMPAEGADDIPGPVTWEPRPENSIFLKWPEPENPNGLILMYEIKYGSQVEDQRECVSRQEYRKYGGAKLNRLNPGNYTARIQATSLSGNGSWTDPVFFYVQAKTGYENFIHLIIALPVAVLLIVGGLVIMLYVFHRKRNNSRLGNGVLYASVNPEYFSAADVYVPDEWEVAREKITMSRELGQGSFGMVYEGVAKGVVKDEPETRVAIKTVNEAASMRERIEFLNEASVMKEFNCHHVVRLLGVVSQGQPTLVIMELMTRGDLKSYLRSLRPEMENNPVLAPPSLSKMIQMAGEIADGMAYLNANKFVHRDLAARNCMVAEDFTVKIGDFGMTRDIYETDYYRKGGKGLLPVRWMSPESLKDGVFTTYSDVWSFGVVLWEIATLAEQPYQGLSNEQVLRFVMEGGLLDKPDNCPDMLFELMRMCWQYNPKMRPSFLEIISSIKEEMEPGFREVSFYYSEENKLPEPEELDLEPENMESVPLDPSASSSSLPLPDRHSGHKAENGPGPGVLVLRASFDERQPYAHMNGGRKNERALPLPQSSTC
structure (smiles),measurement,setting,value
"O=C1C=C(Nc2ccc(OCc3cn(Cc4ccc(Cl)c(Cl)c4)nn3)cc2)C(=O)c2ccccc21 [Compound 4e, 2-((4-((1-(3,4-Dichlorobenzyl)−1H-1,2,3-triazol-4-yl)methoxy)phenyl)amino) naphthalene-1,4-dione]",inhibition at 10 µM,ABL1,13%
same,inhibition at 10 µM,IGF1R,-11%
same,inhibition at 10 µM,CDK2/cyclin A,9%
same,inhibition at 10 µM,KDR (VEGFR2),-9%
same,inhibition at 10 µM,FGFR1,-5%
same,IC50,Mia-Paca-2,0.8 ± 0.1 µM
same,IC50,EBC-1,0.3 ± 0.1 µM
same,inhibition at 10 µM,KIT (c-Kit),-8%
same,IC50,NIH3T3,6.5 ± 1.2 µM
same,Effect on cell cycle distribution (S and G2/M phases),AsPC-1 cells [1],dose-dependently increased the number of cells in the S phase and simultaneously reduced the cells in G2/M phase
same,Effect on sub-G1 and G0/G1 phases,AsPC-1 cells [1],"increase in cells in sub-G1 phase, while reducing G0/G1 cells"
same,Apoptosis induction (nuclear morphology),AsPC-1 cells [2],characteristic features of apoptosis including densely packed chromatin within the nucleus as well as nuclear fragmentation
same,IC50,MCF-7,7.1 ± 4.3 µM
